For this assay, the target named is T1, recombinant human GR (Homo sapiens, UniProt P04150).
T1 construct: purchased Panvera/Invitrogen P2812 (kit P2893)
T1 sequence (P04150 1-777): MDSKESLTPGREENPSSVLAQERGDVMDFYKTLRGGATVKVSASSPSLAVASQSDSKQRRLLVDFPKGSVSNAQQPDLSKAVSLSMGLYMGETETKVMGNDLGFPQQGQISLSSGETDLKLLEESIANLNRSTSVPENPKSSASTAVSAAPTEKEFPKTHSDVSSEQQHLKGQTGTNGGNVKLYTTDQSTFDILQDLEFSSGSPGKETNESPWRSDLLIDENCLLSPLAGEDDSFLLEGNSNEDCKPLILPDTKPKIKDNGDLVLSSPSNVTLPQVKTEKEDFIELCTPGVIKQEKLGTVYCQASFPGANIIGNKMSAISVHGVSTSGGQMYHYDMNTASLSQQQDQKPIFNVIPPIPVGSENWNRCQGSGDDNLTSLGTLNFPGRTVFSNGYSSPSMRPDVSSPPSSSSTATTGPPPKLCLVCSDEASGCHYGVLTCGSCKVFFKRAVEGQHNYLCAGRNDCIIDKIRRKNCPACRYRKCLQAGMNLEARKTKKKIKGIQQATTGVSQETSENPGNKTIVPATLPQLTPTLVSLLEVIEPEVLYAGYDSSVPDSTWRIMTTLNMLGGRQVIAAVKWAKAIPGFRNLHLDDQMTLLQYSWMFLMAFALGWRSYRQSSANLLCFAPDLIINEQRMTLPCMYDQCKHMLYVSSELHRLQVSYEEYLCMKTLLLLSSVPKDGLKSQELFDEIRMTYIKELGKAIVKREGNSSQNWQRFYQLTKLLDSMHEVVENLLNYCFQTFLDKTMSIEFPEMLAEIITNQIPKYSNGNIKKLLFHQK
Description: Human Glucocorticoid Receptor (GR) Assay (fluorescence polarization, Panvera/Invitrogen kit). Type of assay: binding. To be noted: fluorescence polarization; GS Red tracer; 2 hours at room temperature; 100% control 10 μM Dexamethasone; read-out: Inhibition of GR binding, IC50. As to the method:
Human Glucocorticoid Receptor (GR) Assay
The assay is based on a commercial kit from Panvera/Invitrogen (Part number P2893). The assay technology is fluorescence polarization. […] The GR and Stabilizing Peptide reagents are stored at −70° C. while the GS Red is stored at −20° C. Also included in the kit are 1M DTT (Panvera, Part number P2325, stored at −20° C.) and GR Screening buffer 10× (Panvera, Part number P2814, stored at −70° C. initially but once thawed stored at room temperature). Avoid repeated freeze/thaws for all reagents. The GR Screening buffer 10× comprises 100 mM potassium phosphate, 200 mM sodium molybdate, 1 mM EDTA and 20% DMSO.
0% control was 100% DMSO and 100% control was 10 μM Dexamethasone. Background solution (8 μL; assay buffer 10×, Stabilizing Peptide, DTT and ice cold MQ water) was added to the background wells. GS Red solution (7 μL; assay buffer 10×, Stabilizing Peptide, DTT, GS Red and ice cold water) was added to all wells except background wells. GR solution (7 μL; assay buffer 10×, Stabilizing Peptide, DTT, GR and ice cold water) was added to all wells. The plate was sealed and incubated in a dark at room temperature for 2 hours.
A general note: Polarisation of emitted light reports the rotation of a fluorescent probe.
As usually defined, the IC50 is the concentration that inhibits the measured activity by half. Turning to `Cc1nnsc1C(=O)O[C@]1(C(=O)SCC#N)CC[C@H]2[C@@H]3CCC4=Cc5c(cnn5-c5ccc(F)cc5)C[C@]4(C)[C@H]3[C@@H](O)C[C@@]21C` [Example 6, (1R,3aS,3bS,10aR,10bS,11S,12aS)-1-{[(Cyanomethyl)thio]carbonyl}-7-(4-fluorophenyl)-11-hydroxy-10a,12a-dimethyl-1,2,3,3a,3b,4,5,7,10,10a,10b,11,12,12a-tetradecahydrocyclopenta[5,6]naphtho[1,2-f]indazol-1-yl 4-methyl-1,2,3-thiadiazole-5-carboxylate], the IC50 stood at 5.9 nM.

Turning to `C[C@]12Cc3cnn(-c4ccc(F)cc4)c3C=C1CC[C@@H]1[C@@H]2[C@@H](O)C[C@@]2(C)[C@H]1CC[C@]2(OC(=O)c1ccco1)C(=O)SCC#N` [Example 7, (1R,3aS,3bS,10aR,10bS,11S,12aS)-1-{[(Cyanomethyl)thio]carbonyl}-7-(4-fluorophenyl)-11-hydroxy-10a,12a-dimethyl-1,2,3,3a,3b,4,5,7,10,10a,10b,11,12,12a-tetradecahydrocyclopenta[5,6]naphtho[1,2-f]indazol-1-yl 2-furoate], the IC50 was found to be 5.6 nM. `C[C@]12Cc3cnn(-c4ccc(F)cc4)c3C=C1CC[C@@H]1[C@@H]2[C@@H](O)C[C@@]2(C)[C@H]1CC[C@]2(OC(=O)c1ccco1)C(=O)SCF` [Example 8, (1R,3aS,3bS,10aR,10bS,11S,12aS)-1-{[(Fluoromethyl)thio]carbonyl}-7-(4-fluorophenyl)-11-hydroxy-10a,12a-dimethyl-1,2,3,3a,3b,4,5,7,10,10a,10b,11,12,12a-tetradecahydrocyclopenta[5,6]naphtho[1,2-f]indazol-1-yl 2-furoate]: the 50% inhibitory concentration (IC50) was determined as 4.7 nM.

For `Cc1ncsc1C(=O)O[C@]1(C(=O)OCC#N)CC[C@H]2[C@@H]3CCC4=Cc5c(cnn5-c5ccc(F)cc5)C[C@]4(C)[C@H]3[C@@H](O)C[C@@]21C` [Example 9, Cyanomethyl(1R,3aS,3bS,10aR,10bS,11S,12aS)-7-(4-fluorophenyl)-11-hydroxy-10a,12a-dimethyl-1-{[(4-methyl-1,3-thiazol-5-yl)carbonyl]oxy}-1,2,3,3a,3b,4,5,7,10,10a,10b,11,12,12a-tetradecahydrocyclopenta[5,6]naphtho[1,2-f]indazole-1-carboxylate], the IC50 is 9.4 nM. In the case of `CCC(=O)O[C@]1(C(=O)SCC#N)CC[C@H]2[C@@H]3CCC4=Cc5c(cnn5-c5ccc(F)cc5)C[C@]4(C)[C@H]3[C@@H](O)C[C@@]21C` [Example 10, (1R,3aS,3bS,10aR,10bS,11S,12aS)-1-{[(Cyanomethyl)thio]carbonyl}-7-(4-fluorophenyl)-11-hydroxy-10a,12a-dimethyl-1,2,3,3a,3b,4,5,7,10,10a,10b,11,12,12a-tetradecahydrocyclopenta[5,6]naphtho[1,2-f]indazol-1-yl propionate] it was 3.2 nM; in that of `CCC(=O)O[C@]1(C(=O)SCC(=O)OC)CC[C@H]2[C@@H]3CCC4=Cc5c(cnn5-c5ccc(F)cc5)C[C@]4(C)[C@H]3[C@@H](O)C[C@@]21C` [Example 11, (1R,3aS,3bS,10aR,10bS,11S,12aS)-7-(4-Fluorophenyl)-11-hydroxy-1-{[(2-methoxy-2-oxoethyl)thio]carbonyl}-10a,12a-dimethyl-1,2,3,3a,3b,4,5,7,10,10a,10b,11,12,12a-tetradecahydrocyclopenta[5,6]naphtho[1,2-f]indazol-1-yl propanoate], 3.8 nM. In the case of `CCC(=O)O[C@]1(C(=O)SC(C)C#N)CC[C@H]2[C@@H]3CCC4=Cc5c(cnn5-c5ccc(F)cc5)C[C@]4(C)[C@H]3[C@@H](O)C[C@@]21C` (stereo partly drawn) [Example 12, (1R,3aS,3bS,10aR,10bS,11S,12aS)-1-{[(1-Cyanoethyl)thio]carbonyl}-7-(4-fluoro-phenyl)-11-hydroxy-10a,12a-dimethyl-1,2,3,3a,3b,4,5,7,10,10a,10b,11,12,12a-tetradecahydrocyclopenta[5,6]naphtho[1,2-f]indazol-1-yl propanoate] it was 5.8 nM. Under `CCC(=O)O[C@]1(C(=O)SCC(N)=O)CC[C@H]2[C@@H]3CCC4=Cc5c(cnn5-c5ccc(F)cc5)C[C@]4(C)[C@H]3[C@@H](O)C[C@@]21C` [Example 13, (1R,3aS,3bS,10aR,10bS,11S,12aS)-{[(2-Amino-2-oxoethyl)thio]carbonyl}-7-(4-fluorophenyl)-11-hydroxy-10a,12a-dimethyl-1,2,3,3a,3b,4,5,7,10,10a,10b,11,12,12a-tetradecahydrocyclopenta[5,6]naphtho[1,2-f]indazol-1-yl propanoate] stands 3.1 nM; under `CCC(=O)O[C@]1(C(=O)SCOC)CC[C@H]2[C@@H]3CCC4=Cc5c(cnn5-c5ccc(F)cc5)C[C@]4(C)[C@H]3[C@@H](O)C[C@@]21C` [Example 14, (1R,3aS,3bS,10aR,10bS,11S,12aS)-7-(4-Fluorophenyl)-11-hydroxy-{[(methoxy-methyl)thio]carbonyl}-10a,12a-dimethyl-1,2,3,3a,3b,4,5,7,10,10a,10b,11,12,12a-tetradecahydrocyclopenta[5,6]naphtho[1,2-f]indazol-1-yl propanoate], 3.6 nM; under `CCC(=O)O[C@]1(C(=O)SCCO)CC[C@H]2[C@@H]3CCC4=Cc5c(cnn5-c5ccc(F)cc5)C[C@]4(C)[C@H]3[C@@H](O)C[C@@]21C` [Example 15, (1R,3aS,3bS,10aR,10bS,11S,12aS)-7-(4-Fluorophenyl)-11-hydroxy-1-{[(2-hydroxyethyl)thio]carbonyl}-10a,12a-dimethyl-1,2,3,3a,3b,4,5,7,10,10a,10b,11,12,12a-tetradecahydropcyclopenta[5,6]naphtho[1,2-f]indazol-1-yl propanoate], 3.7 nM. Turning to `CCC(=O)O[C@]1(C(=O)SCCC#N)CC[C@H]2[C@@H]3CCC4=Cc5c(cnn5-c5ccc(F)cc5)C[C@]4(C)[C@H]3[C@@H](O)C[C@@]21C` [Example 16, (1R,3aS,3bS,10aR,10bS,11S,12aS)-{[(2-Cyanoethyl)thio]carbonyl}-7-(4-fluoro-phenyl)-11-hydroxy-10a,12a-dimethyl-1,2,3,3a,3b,4,5,7,10,10a,10b,11,12,12a-tetradecahydrocyclopenta[5,6]naphtho[1,2-f]indazol-1-yl propanoate], the IC50 worked out at 3.4 nM. In the case of `CCC(=O)O[C@]1(C(=O)SCC(C)=O)CC[C@H]2[C@@H]3CCC4=Cc5c(cnn5-c5ccc(F)cc5)C[C@]4(C)[C@H]3[C@@H](O)C[C@@]21C` [Example 17, (1R,3aS,3bS,10aR,10bS,11S,12aS)-7-(4-Fluorophenyl)-11-hydroxy-10a,12a-dimethyl-1-{[(2-oxopropyl)thio]carbonyl}-1,2,3,3a,3b,4,5,7,10,10a,10b,11,12,12a-tetradecaphydrocyclopenta[5,6]naphtho[1,2-f]indazol-1-yl propanoate] it was 4.8 nM; in that of `CCC(=O)O[C@]1(C(=O)SCC#CCO)CC[C@H]2[C@@H]3CCC4=Cc5c(cnn5-c5ccc(F)cc5)C[C@]4(C)[C@H]3[C@@H](O)C[C@@]21C` [Example 18, (1R,3aS,3bS,10aR,10bS,11S,12aS)-7-(4-Fluorophenyl)-11-hydroxy-1-{[(4-hydroxy-but-2-yn-1-yl)thio]carbonyl}-10a,12a-dimethyl-1,2,3,3a,3b,4,5,7,10,10a,10b,11,12,12a-tetradecahydrocyclopenta[5,6]naphtho[1,2-f]indazol-1-yl propanoate], 4.1 nM. In the case of `CCC(=O)O[C@]1(C(=O)SCF)CC[C@H]2[C@@H]3CCC4=Cc5c(cnn5-c5ccc(F)cc5)C[C@]4(C)[C@H]3[C@@H](O)C[C@@]21C` [Example 19, (1R,3aS,3bS,10aR,10bS,11S,12aS)-1-{[(Fluoromethyl)thio]carbonyl}-7-(4-fluoro-phenyl)-11-hydroxy-10a,12a-dimethyl-1,2,3,3a,3b,4,5,7,10,10a,10b,11,12,12a-tetradecahydrocyclopenta[5,6]naphtho[1,2-f]indazol-1-yl propanoate] it was 3.7 nM.
